Experimental data: patent US11643439B2, “Multi-target compound with anticoagulation and antiplatelet activity, preparation method therefor, and use thereof” (SHAANXI MICOT TECHNOLOGY LIMITED COMPANY, priority 2015, dated 2023)

Tests used:
[1] = test system: FeCl3-induced inferior vena cava thrombosis; experiment: FeCl3-induced inferior vena cava thrombosis in rats; format: in vivo, rat
Method: (§1) 160 Rats were randomly divided into groups, 5 to 10 rats per group.
(§2) According to the body weight in kilograms of the rats, the first dose of a drug was dissolved in 2 mL of physiological saline for single bolus injection. The maintaining dose of drug was dissolved in 9 ml of physiological saline, and placed in a double-channel micro-injection pump, which was dripped off within 90 minutes at a dripping speed of 0.1 ml/min. The sham operation group was administered with the same volume of physiological saline.
(§3) The rats were fasted with free access to water overnight before the experiment.
15 minutes later, the filter paper was removed. And then, after observation for 45 minutes, the blood vessels and local tissues were rinsed with warm physiological saline, and the covered blood vessels were cut off. The thrombus which attached to the blood vessel walls was peeled off to be weighed on a tin foil for its wet weight, and then weighed overnight at room temperature for its dry weight. The administration was continued until the completion of the experiment.
After the experiment was completed, the segment of the blood vessels in which there had been thrombus formation was cut off, weighed for the wet weight, and then weighed overnight at room temperature for the dry weight of the thrombus. Thrombosis inhibitory rate was calculated.

[2] = test system: blood coagulation function; experiment: APTT in rats, intravenous maintenance administration; format: in vivo, rat
Method: as §1, §2, §3
The blood samples were taken before administration, administration for 60 minutes, and before termination of administration, respectively, to determine their activated partial thromboplastin time (APTT) and prothrombin time (PT). The blood samples were centrifuged at 3510 rpm for 8 minutes to obtain platelet poor plasma (PPP). Reagent reconstruction and preservation were performed according to the operation requirements of the kit. Immediately after each blood sample was placed into a test cup and then PT and APTT reagents were added, the test was started. After the test was completed, results were recorded.
5.1 Determination of blood coagulation function: The blood samples were taken 0 min before administration, administration for 60 minutes, and termination of administration, respectively, and then determined using a platelet-aggregation coagulation factor analyzer for the blood coagulation functions (PT. APTT) and ACT.

[3] = test system: femoral arterial and venous bypass thrombosis; experiment: Femoral arterial and venous bypass thrombosis in rabbits, single intravenous administration; format: in vivo, rabbit; conditions: single iv 200 U (U/kg), 15 min
Method: (§4) 1. Grouping and administration: 48 Rabbits were randomly divided into 6 groups, 8 rabbits per group. 1) Sham operation group (NS): Intravenous injection of the same volume of physiological saline; 2) positive control bivalirudin group (6 mg/kg); 3) positive control enoxaparin group (200 U/kg); 4) Low dose group of polypeptide 2 (3.0 mg/kg); 5) Medium dose group of polypeptide 2 (6.0 mg/kg); 6) High dose group of polypeptide 2 (12.0 mg/kg). Polypeptide 2 was administered by single intravenous administration. According to the body weight in kilograms of the rabbits, the sample was dissolved in 2 mL of physiological saline for single bolus injection. The sham operation group was administered with the same volume of physiological saline.
2.1 Surgery preparation of rabbits: Rabbit were sent to the laboratory for accommodation for one day, and then screened at first. Blood samples were taken from arteries within ears, which were subjected to blood routine analysis and APTT examinations, and the rabbits with a normal blood hemogram and APTT between 16 and 28 seconds were selected for experiments. The rabbits to be tested were fasted with free access to water in the night before the experiment. The rabbits were anesthetized with intravenous injection of 3% sodium pentobarbital solution at 1 ml/kg, fixed in the supine position, and then, the common carotid artery at one side, external jugular vein, femoral artery at one side, femoral vein, and forelimb vein at one side were isolated. The forelimb vein was subjected to intubation for administration; the left femoral vein was subjected to intubation for blood collection to determine the platelet aggregation rate: the femoral artery was used for the establishment of an arterial thrombosis model; the common carotid artery and external jugular vein were used for the establishment of an arterial and venous bypass thrombosis model.
2.2 Arterial and venous bypass thrombosis (AVST) model: An arterial and venous shunt consists of two casings, of which an outer casing has a length of about 8 cm and an inner diameter of 7.9 mm, the inner casing has a length of about 2.5 cm and an inner diameter of 4.8 mm. The polyethylene tube was charged with a silk thread about 8 cm long and filled with […] heparin solution, of which one end was inserted into the left femoral artery and the other end was inserted into the right femoral vein. After administration for 30 seconds, the blood flow was released, which flowed from the left artery to the polyethylene tube and returned to the right vein. After 15 minutes, the blood flow was interrupted, the silk thread was quickly removed and placed on an aluminum foil (size: 2.5 cm×2.5 cm), measured for its wet weight, and kept overnight at room temperature and weighed for its dry weight.
The femoral arteries in the […] and both sides in the rabbits were isolated and stabilized for 10 min before the administration was started. An AT model was established by covering the femoral artery with 50% FeCl3 filter paper while administration, and the filter paper was removed after covering for 15 minutes. An AVST model was established and it was taken out after […]. Observation was continued for 120 min after administration until the experiment was completed.
3.4 Thrombus weight: After the experiment was completed, the segment of the blood vessels in which there had been thrombus formation was cut off, weighed for the wet weight, and then kept overnight at room temperature and weighed for the dry weight. The thrombosis inhibitory rate was calculated with a calculation equation as follows: […]

[4] = test system: blood coagulation function; experiment: PT in rabbits, single intravenous administration; format: in vivo, rabbit; conditions: single iv 200 (U/kg)
Method: as §4
3.2 Determination of blood coagulation function: Blood samples were taken and the blood function (PT, TT, APTT) was determined at 0 min before administration, at points of 5 min and 15 min after administration, using a platelet-aggregation coagulation factor analyzer. Blood samples were centrifuged at 3510 rpm for 8 min to obtain platelet poor plasma (PPP). Reagent reconstruction and preservation were performed according to the operation requirements of the kit. Immediately after each blood sample was placed into a test cup and then added with PT. TT and APTT reagents, the test was started. After the test was completed, results were recorded.

In the case of Enoxaparin, the “Inferior vena cava thrombosis Inhibition percentage” value ([1]; iv 30 + 45 u (U/kg+U/kg/h)) is reported as 34.93%, the “Inferior vena cava thrombosis Thrombus weight” value ([1]; iv 30 + 45 u (U/kg+U/kg/h)) is reported as 14.67 ± 8.44 mg and the “Inferior vena cava thrombosis Inhibition percentage” value ([1]; iv 30 + 120 u (U/kg+U/kg/h)) is reported as 49.07%. The “Inferior vena cava thrombosis Thrombus weight” value ([1]; iv 30 + 120 u (U/kg+U/kg/h)) was 11.48 ± 2.81 mg, the “Inferior vena cava thrombosis Inhibition percentage” value ([1]; iv 60 + 60 u (U/kg+U/kg/h)) was 50.42% and the “Inferior vena cava thrombosis Thrombus weight” value ([1]; iv 60 + 60 u (U/kg+U/kg/h)) was 11.18 ± 4.47 mg. The “Inferior vena cava thrombosis Inhibition percentage” value ([1]; iv 60 + 240 u (U/kg+U/kg/h)) was 86.25%, the “Inferior vena cava thrombosis Thrombus weight” value ([1]; iv 60 + 240 u (U/kg+U/kg/h)) was 6.59 ± 2.54 mg and the “Inferior vena cava thrombosis Inhibition percentage” value ([1]; iv 90 + 120 u (U/kg+U/kg/h)) was 64.06%. The “Inferior vena cava thrombosis Thrombus weight” value ([1]; iv 90 + 120 u (U/kg+U/kg/h)) was 8.10 ± 3.67 mg, the “APTT Before administration” value ([2]; iv 30 + 45 u (U/kg+U/kg/h)) was 28.99 ± 7.00 and the “APTT Fold of change” value ([2]; iv 30 + 45 u (U/kg+U/kg/h)) was 1.78 ± 0.61. For the same substance, the “APTT administration for 60 minutes” value ([2]; iv 30 + 45 u (U/kg+U/kg/h)) was 52.28 ± 22.51, the “APTT Before administration” value ([2]; iv 30 + 120 u (U/kg+U/kg/h)) was 23.66 ± 5.88 and the “APTT Fold of change” value ([2]; iv 30 + 120 u (U/kg+U/kg/h)) was 4.65 ± 1.72. For the same substance, the “APTT administration for 60 minutes” value ([2]; iv 30 + 120 u (U/kg+U/kg/h)) was 117.55 ± 78.85, the “APTT Before administration” value ([2]; iv 60 + 60 u (U/kg+U/kg/h)) was 23.45 ± 4.70 and the “APTT Fold of change” value ([2]; iv 60 + 60 u (U/kg+U/kg/h)) was 2.66 ± 0.36. The “APTT administration for 60 minutes” value ([2]; iv 60 + 60 u (U/kg+U/kg/h)) was 61.81 ± 13.19, the “APTT Before administration” value ([2]; iv 60 + 240 u (U/kg+U/kg/h)) was 26.79 ± 4.74 and the “APTT Fold of change” value ([2]; iv 60 + 240 u (U/kg+U/kg/h)) was 10.69 ± 7.14. For the same substance, the “APTT administration for 60 minutes” value ([2]; iv 60 + 240 u (U/kg+U/kg/h)) was 270.43 ± 166.43, the “APTT Before administration” value ([2]; iv 90 + 120 u (U/kg+U/kg/h)) was 19.04 ± 5.26 and the “APTT Fold of change” value ([2]; iv 90 + 120 u (U/kg+U/kg/h)) was 16.34 ± 12.97. The “APTT administration for 60 minutes” value ([2]; iv 90 + 120 u (U/kg+U/kg/h)) was 270.85 ± 148.90, the Thrombus dry weight [3] was 17.3 ± 6.5 mg and the Thrombus inhibitory rate [3] was 26.88%. The “PT fold of prolongation” value ([4]; Administration 5 min) was 1.2 ± 0.1, the “PT fold of prolongation” value ([4]; Administration 15 min) was 1.2 ± 0.1 and the PT ([4]; Administration for 5 min) was 6.7 ± 1.1 S. The PT ([4]; Administration for 15 min) was 6.7 ± 0.8 S and the PT ([4]; Before administration) was 5.8 ± 0.2 S.
